We go through eight compounds from patent US20080221074A1, “Drug Screen and Treatment Method” (priority 2006, published 2008).

Molecules are shown by their SMILES.

In data set [1] the test system is human T lymphocytes (PBMC). Description: human mixed lymphocyte reaction (MLR). It counts as cell-based. The settings on record: 300 nM or 30 nM. An excerpt:
Human mixed lymphocyte reaction (MLR). The capacity of 3β,16α-dihydroxy-17-oxoandrostane, 3β,17β-dihydroxy-16-oxoandrostane, 17α-ethynylandrost-5-ene-3β,7β,17β-triol, and 17β-aminoandrost-5-ene-3β-ol to affect antigen specific stimulation in which human T lymphocytes respond to a specific foreign antigen (major histocompatibility complex).
Blood samples were obtained from 3 (2 males, […]) fasting, healthy human volunteers of 23-31 years old. […] The subjects were bled between 9 and 10 AM to limit possible fluctuations in the circulating levels of hormones or cytokines that could have influenced the in vitro responses of their lymphocytes. Peripheral blood mononuclear cells (PBMC) were isolated by centrifugation on Ficoll-Hypaque (density 1.077, Biochrom AG, Berlin, Germany) gradients and resuspended in culture medium (RPMI 1640 supplemented with 2 mM L-glutamine, penicillin (100 U/mL) and streptomycin ([…]) (Invitrogen s.rl., Milan, Italy). Autologous (responder) inactivated plasma was used at 10%. Five hundred thousand responder PBMC (PBMCr) and 500,000 allogeneic irradiated (30 Gy) stimulator PBMC (PBMCs) were mixed at a ratio of 1:1 in 200 μL medium and cultured for 6 days in flat bottom 96 well plates (Nunc, Roskilde, Denmark) at a concentration of 300 nM or 30 nM for each of the 4 compounds. The compounds were dissolved in ethanol and then diluted to the desired concentration with culture medium leading to a final solution containing 0.01% of ethanol. This vehicle was used as control. Controls also included PBMCr and PBMCs cultured separately. During the last 8 hours of the culture period the PBMC were pulsed with […] [^3H] thymidine (Amersham, Milan, Italy). The cells were then harvested and radioactivity incorporation measured with a beta cell counter. The mean cpm of quadruplicate wells was calculated. Proliferation of T cells was expressed as a stimulation index: SI=cpm (PMBCs xPBMCr)/cpm (PBMCr)+cpm (PBMCs). Statistical analysis was performed using the Student's t test. The cpm obtained from quadruplicate of each test compound were compared to proliferative responses obtained in control PBMCr and PBMCs cultured in the presence of the vehicle. Differences were considered significant at p<0.05.

In data set [2] the test system is progressive ischemia after thermal injury of the ear. Description: thermal injury model using mouse ear tissue. Particulars: injection in propylene glycol after burn. It counts as in vivo, Balb/c mice. The method, then: A thermal injury model using mouse ear tissue was used to characterize compounds for their capacity to treat inflammation associated with thermal trauma. […] Groups of Balb/c mice, approximately nine weeks old were given an identifying mark and then divided into control and treated subgroups. The thickness of the ear to be immersed in hot water was recorded, and then the entire ear of the anesthetized mouse was dipped into 52° C. water for 24 seconds. Each mouse was returned to its cage after an injection of either the propylene glycol vehicle (control) or 100 mg of compound in propylene glycol. Ear swelling changes were monitored on individual mice at pre-burn, and at various times after thermal injury. Ear swelling changes were monitored on individual mice at pre-injury and at 1, 3, 6, 9,12, 18, 24 and 48 hours after thermal injury. Animals were treated with 100 mg of dehydroepiandrosterone (DHEA) dissolved in propylene glycol.

The test system of the next data set is EAE. Description: experimental allergic encephalomyelitis (EAE), PLP 139-151. It counts as in vivo, female SJL/J mice. The settings on record: 5 mg/kg daily oral gavage; through day 26. From the text:
Treatment of autoimmune neurodegeneration. Three compounds, 17β-aminoandrost-5-ene-3β-ol, 17β-dimethylaminoandrost-5-ene-3β-ol and 17β-methylaminoandrost-5-ene-3β-ol were characterized for their capacity to ameliorate experimental allergic encephalomyelitis (EAE) in mice. This demyelinating condition is extensively used as a model for multiple sclerosis in humans and for testing of new therapies for treating multiple sclerosis, e.g., B. F. Bebo Jr. et al., J. Neurosci. Res. 52:420-426 1998; R. R. Voskuhl et al., Neuroscientist, 7:258-270 2001; H. Offner et al., J. Neuroimmunol., 130:128-139 2002.
In this protocol, the compounds were administered to female SJL/J mice by oral gavage at the onset of disease symptoms. An antigen was used to initiate the EAE condition in the mice. […] Immunization with this peptide antigen initiates an autoimmune Thl mediated demyelinating disease of the central nervous system. The antigen was prepared by solid phase synthesis and purified by high-performance liquid chromatography. […] The immunization protocol was subcutaneous injection over four sites on the hind flank on day 0. After immunization. the mice were assessed daily for clinical signs of EAE using the following scale: 0=no clinical signs or symptoms; 1=limp tail; 2=mild hind limb weakness and limp tail; 3=moderate hind limb weakness and limp tail or mild ataxia; 4=severe hind limb weakness and mild forearm weakness with moderate ataxia; 5=paraplegia with no more than moderate forelimb weakness; 6=paraplegia with severe forelimb weakness or severe ataxia or moribund condition.
Mice in the vehicle control group began to show observable symptoms of EAE at about 10-11 days after immunization with the PLP antigen, which is typical for the EAE disease model. The animals were dosed daily with 17β-aminoandrost-5-ene-3β-ol, 17β-dimethylaminoandrost-5-ene-3β-ol or 17β-methylaminoandrost-5-ene-3β-ol by oral gavage beginning at day 1, which was 1 day after immunization.

The next data set has as its system NF-κB. Description: inhibition of NF-κB activation in NF-κB-bla THP-1 cells after LPS stimulation. It counts as cell-based, human. The settings on record: Homo sapiens, THP-1. An excerpt: Inhibition of NF-κB in vitro. […] Activation of NF-κB increases expression of a number of genes that mediate inflammation. This protocol used human THP-1 cells, which are human mononuclear blood cells with a monocyte phenotype. The cell line, referred to as NF-κB-bla THP-1, contained a β-lactamase reporter gene under the control of the NF-kB response element (Invitrogen, CellSensor™, product No. K1176). In this cell line, the β-lactamase reporter gene is stably integrated in the THP-1 cells. This cell line was used to detect agonists or antagonists of the NF-κB signaling pathway. These NF-κB-bla THP-1 cells respond to the presence of tumor necrosis factor alpha (TNFα) or bacterial lipopolysaccharide (LPS) by increased expression of the β-lactamase reporter gene. The level of β-lactamase enzyme activity was measured by fluorescence resonance energy transfer ratiometric detection. TNFα and LPS are both potent inflammation-inducing agents that activate NF-κB in THP1 cells. In this assay, compounds that decrease NF-κB activity, and thus β-lactamase, in the presence of TNFα or LPS are exerting an anti-inflammation activity.
The NF-κB-bla THP-1 cells were maintained by passaging or feeding as needed. […] The cells were plated at 20,000 cells/well in a 384-well Black-wall, clear bottom assay plates (Costar#3712-TC low fluorescence background plates) approximately 24 hours before adding either TNFα at 10 ng/mL or LPS at 0.2 ng/mL to activate NF-κB.
The assays were usually conducted 2-4 times for each compound and the values shown below are averages for each compound.

In data set [3] the test system is ionizing radiation exposure. Description: survival after lethal total body irradiation (10 Gy). The format is in vivo, female B6D2F1 mice. How it is done: Treatment of ionizing radiation exposure. The effect of selected F1Cs on survival of lethally-irradiated female B6D2F1 mice were compared to control animals treated with vehicle alone. […] For Group 4, test article was administered as a 50 μL volume, by intramuscular injection for three consecutive days. The formulation was a a suspension containing 0.1% w/v carboxymethyl-cellulose, 0.9% w/v sodium chloride and 0.05% v/v phenol. The formulations were agitated to uniformly resuspend the Fl C before syringing, and injected into animals within a few minutes of drawing into the syringe to prevent settling in the syringe.
The groups of animals were treated as follows. […] The number of surviving animals is shown for day 6, 7, 12 and 21.

Data set [4] relates to insulin sensitivity in db/db diabetic mice. The experiment in a line: hyperinsulinemic-euglycemic clamp. It counts as in vivo. The settings on record: ^14C-2-deoxyglucose; p<0.05. How it is done:
Glucose lowering in 8 week old db/db diabetic mice. The hyperinsulinemic-euglycemic clamp protocol was conducted to measure insulin sensitivity in vivo. In this procedure, insulin was administered to raise the insulin concentration while glucose was infused to maintain euglycemia or a fixed, normal blood glucose level (about 180 mg/dL). […] The objective of this protocol was to investigate characterize the capacity of 17α-ethynylandrost-5-ene-3β,7β,17β-triol and androst-5-ene-3β,7β,16α,17β-tetrol to ameliorate systemic insulin resistance and improve whole body glucose disposal in the hyperinsulinemic-euglycemic clamp model. The degree of skeletal muscle and hepatic insulin sensitivity and tissue specific glucose uptake were also assessed. The animals were dosed daily by oral gavage for 14 days. On Day 10 of treatment catheters were implanted in the carotid artery and jugular vein. On the day of the clamp (day 14) the compound was administered at 7:30 am.
Body weight and glucose concentration were assessed on day 0, 7 and day 14 of treatment. On day 14 a euglycemic hyperinsulinemic clamp was performed. Food was removed at 7:30 am at 10:30 a primed continuous infusion of [3-^3H]-glucose (0.05 μCi/min). A baseline blood sample was taken at 12:50 (−10 min) and at 1:00 (0 min) a euglycemic hyperinsulinemic clamp was initiated by administering 10 mU /kg/min of insulin. Glucose was infused at a variable rate to clamp the glucose concentration at ˜180 mg/dl. A bolus of [^14C]-2deoxyglucose was given at the end of the study to assess tissue specific glucose uptake. Plasma ^14C 2-deoxyglucose was assessed at 122, 125, 130, 135, 145 min. […]
Analysis was conducted as follows. Plasma samples were deproteinized with Ba(OH)2 (0.3 N) and ZnSO4 (0.3 N), dried and radioactivity was assessed on scintillation counter (Packard TRICARB 2900 TR, Meriden, Conn.). […] One supernatant was directly counted to determine radioactivity from both [14C] […] A second aliquot was treated with Ba(OH)2 and ZnSO4 to remove ^14C DGP and any tracer incorporated into glycogen and then counted to determine radioactivity from free [^14C]DG(2). [^14C]DGP was calculated as the difference between the two aliquots. […] Rg, an index of tissue specific glucose uptake was calculated as previously described (E.W. Kraegen et al., Am. J. Physiol., 248:E353-E362, 1985). Whole body glucose turnover was calculated as the ratio of the ^3H glucose infusion rate (dpm/kg/min) and arterial plasma glucose specific activity (dpm/mg). Endogenous glucose production was calculated as the difference between the whole body glucose turnover and the exogenous glucose infusion rate (R. N. Bergman et al., Endocr. Rev., 6:45-86, 1985).

On to `C[C@]12CC[C@H]3[C@@H](CCC4C[C@@H](O)CC[C@@]43C)[C@@H]1CC(=O)[C@@H]2O` (stereo partly drawn) [3β,17β-dihydroxy-16-oxoandrostane], for which the “immune suppression (inhibition of the MLR)” value in data set [1] is “not appreciably immune suppressive”.
`C[C@]12CC[C@H](O)CC1=CC[C@@H]1[C@@H]2CC[C@]2(C)C(=O)[C@H](Br)C[C@@H]12` [16α-bromodehydroepiandrosterone]: the “protection against progressive ischemia after thermal injury to the ear” value (shortened to “protection against progressive ischemia”) in data set [2] is listed as “protected treated animals against much of the ischemic consequences”.
On to `C[C@]12CC[C@H](O)CC1=CC[C@@H]1[C@@H]2CC[C@]2(C)C(=O)[C@H](Cl)C[C@@H]12` [16α-chlorodehydroepiandrosterone], for which, in data set [2], the “protection against progressive ischemia” value was “only slightly protective”.
The same measure, in the same setting: as for `C[C@]12CC[C@H](O)CC1=CC[C@@H]1[C@@H]2CC[C@]2(C)C(=O)[C@H](O)C[C@@H]12` [16α-hydroxydehydroepiandrosterone], the entry is “less protective”.
`CN(C)[C@H]1CC[C@H]2[C@@H]3CC=C4C[C@@H](O)CC[C@]4(C)[C@H]3CC[C@]12C` [17β-dimethylaminoandrost-5-ene-3β-ol]: in the data set with EAE, the “clinical severity of EAE symptoms” value was “reduced the clinical severity”.
Same read-out and setting: as for `CN[C@H]1CC[C@H]2[C@@H]3CC=C4C[C@@H](O)CC[C@]4(C)[C@H]3CC[C@]12C` [17β-methylaminoandrost-5-ene-3β-ol], the entry is “reduced the clinical severity”.
On to `C[C@]12CC[C@H]3[C@@H](CC=C4C[C@@H](O)CC[C@@]43C)[C@@H]1CC[C@@H]2O` [androst-5-ene-3β,17β-diol], for which the IC50 in the data set with NF-κB was 0.014 nM. In addition, the “number of surviving animals (groups of 12)” value in data set [3] (0.6 mg i.m. daily for 3 days, day 6) turned out to be 12; in data set [3] (0.6 mg i.m. daily for 3 days, day 7), 12; in data set [3] (0.6 mg i.m. daily for 3 days, day 12), 11; in data set [3] (0.6 mg i.m. daily for 3 days, day 21), 9; in data set [3] (0.6 mg s.c. daily for 3 days, day 6), 12; in data set [3] (0.6 mg s.c. daily for 3 days, day 7) it was 11. In addition, the “number of surviving animals (groups of 12)” value in data set [3] (0.6 mg s.c. daily for 3 days, day 12) is 10; in data set [3] (0.6 mg s.c. daily for 3 days, day 21), 7; in data set [3] (3.0 mg s.c. daily for 3 days, day 6), 12; in data set [3] (3.0 mg s.c. daily for 3 days, day 7), 12; in data set [3] (3.0 mg s.c. daily for 3 days, day 12), 9; in data set [3] (3.0 mg s.c. daily for 3 days, day 21), 7. Moreover, in data set [2], the “protection against progressive ischemia” value was “protected treated animals against much of the ischemic consequences”.
Turning to `CN(CCOc1ccc(CC2SC(=O)NC2=O)cc1)c1ccccn1.O=C(O)/C=C\C(=O)O` (stereo not drawn) [rosiglitazone, rosiglitazone maleate, reference compound], the “glucose uptake in the gastrocnemius muscle” value in data set [4] is given as “more effective”.

One may read the IC50 as the concentration needed to halve the response being measured.
